Reference: PMC5241706, “Biochemical and Structural Characterization of Selective Allosteric Inhibitors of the Plasmodium falciparum Drug Target, Prolyl-tRNA-synthetase” (ACS Infectious Diseases, 2016)
Where “and” joins values, the source holds several entries; their conditions need not be identical. Equal values may be shown once. Read-outs that look alike come from different tables or passages of the source.

What was measured:
PfProRS [1] = target: T1, PfProRS (Plasmodium falciparum, UniProt Q8I5R7); assay: luciferase ATP depletion assay, HTS format; format: biochemical
T1 construct: B2, AA7–746 (minus 6 amino acids, or 99% of the ORF); made in house; host or cells: E. coli BL21(DE3)R3 Rosetta Oxford

PfProRS [2] = target: T1, PfProRS; assay: ATP consumption assay with proline or ATP varied (competition); format: biochemical
[3] = intrinsic clearance in liver microsomes; format: in vitro ADME
Protocol: (§1) 485nm (Plouffe et al., 2008).
(§2) described (Vedadi et al., 2006).
(§3) Orange Dye (Life Technologies S-6650).
(§4) In vitro Cell Assay Data Analysis
(§5) (Patterson et al., 2013). […] An
(§6) Triplicate aliquots were transferred to a flat
(§7) Intrinsic Clearance (CLi) experiments
(§8) Test compound (0.5 µM) was
(§9) phosphate buffer, pH 7.4).
(§10) The rate of intrinsic clearance (CLi)
(§11) 52.5mg protein per g liver.
(§12) Ion homeostasis in the malaria parasite

experimental CHI-logD = format: physicochemical; conditions: HPLC retention (chromatographic hydrophobicity index, CHI)
Excerpt: (§13) […]. In addition to its activity and selectivity, it has good physicochemical and DMPK properties. […].

[4] = tested on: Plasmodium falciparum strain 3D7; assay: Plasmodium falciparum growth inhibition, SYBR green fluorescence; format: cell-based; conditions: 3D7, growth inhibition, read-out: Pf (3D7) EC50
HsProRS = target: T2, HsProRS (Homo sapiens, UniProt P07814); assay: luciferase ATP depletion assay, counter-screen; format: biochemical
T2 construct: made in house
T2 sequence (P07814 1007-1512 limits assumed): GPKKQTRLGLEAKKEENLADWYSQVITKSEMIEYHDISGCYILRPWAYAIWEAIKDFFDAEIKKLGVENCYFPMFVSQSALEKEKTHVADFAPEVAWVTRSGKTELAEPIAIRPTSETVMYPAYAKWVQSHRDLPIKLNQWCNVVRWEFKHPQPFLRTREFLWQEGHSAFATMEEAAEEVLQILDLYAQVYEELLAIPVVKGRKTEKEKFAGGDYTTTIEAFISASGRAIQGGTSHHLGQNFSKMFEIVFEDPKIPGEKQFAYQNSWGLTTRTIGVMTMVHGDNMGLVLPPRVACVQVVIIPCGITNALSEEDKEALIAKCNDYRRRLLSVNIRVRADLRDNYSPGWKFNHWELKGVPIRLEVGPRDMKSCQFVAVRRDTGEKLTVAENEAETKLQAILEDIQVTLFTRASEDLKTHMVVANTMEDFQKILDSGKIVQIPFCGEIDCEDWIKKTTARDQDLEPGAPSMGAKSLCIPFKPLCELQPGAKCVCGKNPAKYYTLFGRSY

HsHEPG2 = assay: mammalian cell line selectivity; format: cell-based; conditions: Homo sapiens; data not shown
Excerpt: as §13

[5] = kinetic aqueous solubility, laser nephelometry; format: physicochemical; conditions: MilliQ water with 1.0% DMSO, kinetic from dmso stock
Protocol: as §1, §2, §3, §4, §5, §6, §7, §8, §9, §10, §11, §12

[6] = tested on: isolated 3D7 trophozoites (pHi); assay: pH assay, BCECF-loaded isolated trophozoites; conditions: TCMDC-124506 5 μM; KAE609 50 nM
PfProRS [7] = target: T1, PfProRS; assay: biochemical; format: biochemical; conditions: read-out: Pf ProRS IC50
PfProRS [8] = target: T1, PfProRS; format: binding
PfProRS [9] = target: T1, PfProRS; assay: aminoacylation assay ([3H]-L-proline incorporation into tRNA); format: biochemical
[10] = read-out: Percentage inhibition Pf ProRS

T1 sequence (Q8I5R7 7-746): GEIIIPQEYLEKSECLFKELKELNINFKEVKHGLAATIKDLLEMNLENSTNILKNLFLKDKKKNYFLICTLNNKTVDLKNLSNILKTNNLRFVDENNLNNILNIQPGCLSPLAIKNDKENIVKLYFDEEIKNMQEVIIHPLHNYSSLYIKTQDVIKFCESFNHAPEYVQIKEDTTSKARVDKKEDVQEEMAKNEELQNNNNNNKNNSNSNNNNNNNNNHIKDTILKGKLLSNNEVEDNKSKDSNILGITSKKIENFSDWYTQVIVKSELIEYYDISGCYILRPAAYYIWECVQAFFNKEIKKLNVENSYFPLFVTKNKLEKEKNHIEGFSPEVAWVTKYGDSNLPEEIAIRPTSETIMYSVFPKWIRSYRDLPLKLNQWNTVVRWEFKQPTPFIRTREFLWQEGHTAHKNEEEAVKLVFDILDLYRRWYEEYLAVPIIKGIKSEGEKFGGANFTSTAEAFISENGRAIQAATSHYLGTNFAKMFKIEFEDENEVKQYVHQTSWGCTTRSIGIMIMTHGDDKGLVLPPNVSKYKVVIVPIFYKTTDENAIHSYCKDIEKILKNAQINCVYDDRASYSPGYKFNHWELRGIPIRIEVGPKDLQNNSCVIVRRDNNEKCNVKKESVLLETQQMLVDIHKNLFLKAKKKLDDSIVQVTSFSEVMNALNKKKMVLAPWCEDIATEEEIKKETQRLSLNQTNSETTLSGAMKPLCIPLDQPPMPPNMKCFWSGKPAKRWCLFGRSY

SMILES: Cn1nc(C(F)(F)F)c(-c2ccc(F)cc2)c1NC(=O)Nc1ccc(F)cc1 [TCMDC-124506]
- IC50 (PfProRS [1]; 75 nM ProRS, 60 μM proline, 6 μM ATP, 400 μg/mL yeast tRNA, 2 h 37 °C, read-out: PfProRS IC50): 74 µM and 73 µM
- inhibition at 2.5 µM (PfProRS [1]; [10]): -0.36%
- inhibition at 4.9 µM (PfProRS [1]; [10]): -2.4%
- inhibition at 9.8 µM (PfProRS [1]; [10]): 3.73%
- inhibition at 19.5 µM (PfProRS [1]; [10]): 10.8%
- inhibition at 39 µM (PfProRS [1]; [10]): 30.9%
- inhibition at 78 µM (PfProRS [1]; [10]): 55.8%
- inhibition at 156 µM (PfProRS [1]; [10]): 79.5%
- inhibition at 313 µM (PfProRS [1]; [10]): 80.4%
- inhibition at 625 µM (PfProRS [1]; [10]): 96.2%
- inhibition at 1250 µM (PfProRS [1]; [10]): 97%
- mode of inhibition (PfProRS [2]): competitive allosteric inhibitor
- IC50 (PfProRS [2]; IC50 of TCMDC-124506 as a function of proline, Pro=30 M): 88 µM
- IC50 (PfProRS [2]; IC50 of TCMDC-124506 as a function of proline, Pro=60): 110 µM
- IC50 (PfProRS [2]; IC50 of TCMDC-124506 as a function of proline, Pro=120): 128 µM
- IC50 (PfProRS [2]; IC50 of TCMDC-124506 as a function of proline, Pro=240): 151 µM
- Ki (PfProRS [2]; Ki (Cheng-Prusoff, competition with ATP), intercept of IC50 vs [ATP]): 51 ± 1.6 µM
- Ki (PfProRS [2]; Ki (Cheng-Prusoff, competition with proline), intercept of IC50 vs [Proline]): 80 ± 4.9 µM
- IC50 (PfProRS [2]; TCMDC-124506 IC50 as a function of ATP, ATP=3 M): 74.4 µM
- IC50 (PfProRS [2]; TCMDC-124506 IC50 as a function of ATP, ATP=6): 103 µM
- IC50 (PfProRS [2]; TCMDC-124506 IC50 as a function of ATP, ATP=12): 145 µM
- mouse microsomal clearance (Cli) [3]: 1.6 mL/min/g
- chromatographic logD (experimental CHI-logD): 2.9
- EC50 [4]: 0.6 µM
- IC50 (HsProRS): > 700 µM
- inhibition at 2.5 µM (HsProRS; at 2.5 μM, read-out: Percentage inhibition Hs ProRS): 0.3%
- inhibition at 4.9 µM (HsProRS; at 4.9 μM, read-out: Percentage inhibition Hs ProRS): 0.28%
- inhibition at 9.8 µM (HsProRS; at 9.8 μM, read-out: Percentage inhibition Hs ProRS): 0.01%
- inhibition at 19.5 µM (HsProRS; at 19.5 μM, read-out: Percentage inhibition Hs ProRS): -0.08%
- inhibition at 39 µM (HsProRS; at 39 μM, read-out: Percentage inhibition Hs ProRS): 0.26%
- inhibition at 78 µM (HsProRS; at 78 μM, read-out: Percentage inhibition Hs ProRS): 0.84%
- inhibition at 156 µM (HsProRS; at 156 μM, read-out: Percentage inhibition Hs ProRS): 0.82%
- inhibition at 313 µM (HsProRS; at 313 μM, read-out: Percentage inhibition Hs ProRS): 0.26%
- inhibition at 625 µM (HsProRS; at 625 μM, read-out: Percentage inhibition Hs ProRS): 0.12%
- inhibition at 1250 µM (HsProRS; at 1250 μM, read-out: Percentage inhibition Hs ProRS): 0.04%
- inhibitory activity for HsProRS (HsProRS; up to the limit of solubility (>1 mM)): < 40%
- EC50 (HsHEPG2): > 50 µM
- solubility kinetic [5]: > 250 µM
- effect on acidification after concanamycin A (100 nM) [6]: a reduction in the degree of acidification
- effect on parasite cytosolic pH (pHi) [6]: caused an increase in pHi
- IC50 (PfProRS [7]): 5 µM

SMILES: O=C(CC1NCCCC1O)Cn1cnc2cc(Br)c(Cl)cc2c1=O (stereo not shown) [halofuginone]
- IC50 (PfProRS [1]; PfProRS IC50, 75 nM ProRS, 60 μM proline, 6 μM ATP, 400 μg/mL yeast tRNA, 2 h 37 °C): 0.28 µM
- IC50 (PfProRS [1]; PfProRS IC50, luciferase ATP depletion assay): 0.275 µM
- inhibition at 0.02 µM (PfProRS [1]; [10]): -0.05%
- inhibition at 0.05 µM (PfProRS [1]; [10]): 2.49%
- inhibition at 0.1 µM (PfProRS [1]; [10]): 10.8%
- inhibition at 0.2 µM (PfProRS [1]; [10]): 34.4%
- inhibition at 0.39 µM (PfProRS [1]; [10]): 69%
- inhibition at 0.78 µM (PfProRS [1]; [10]): 90%
- inhibition at 1.56 µM (PfProRS [1]; [10]): 98.9%
- inhibition at 3.13 µM (PfProRS [1]; [10]): 99.1%
- inhibition at 6.25 µM (PfProRS [1]; [10]): 95%
- inhibition at 12.5 µM (PfProRS [1]; [10]): 93.6%
- inhibition at 25 µM (PfProRS [1]; [10]): 93.9%
- change in thermal stability (PfProRS [8]; full-length recombinant protein B1): no increase in stability
- shift in stability (thermal melt) (PfProRS [8]; recombinant protein B2): 6 °
- IC50 (PfProRS [9]): 0.011 µM
- IC50 (HsProRS; 75 nM ProRS, 60 μM proline, 6 μM ATP, 400 μg/mL yeast tRNA, 2 h 37 °C): 2 µM and 2.13 µM
- fold difference between PfProRS and HsProRS IC50 (HsProRS; HsProRS vs PfProRS): ≤ 8 fold
- inhibition at 0.02 µM (HsProRS; at 0.02 μM, read-out: Percentage inhibition Hs ProRS): 0.15%
- inhibition at 0.05 µM (HsProRS; at 0.05 μM, read-out: Percentage inhibition Hs ProRS): -0.14%
- inhibition at 0.1 µM (HsProRS; at 0.10 μM, read-out: Percentage inhibition Hs ProRS): 0.21%
- inhibition at 0.2 µM (HsProRS; at 0.20 μM, read-out: Percentage inhibition Hs ProRS): 1.95%
- inhibition at 0.39 µM (HsProRS; at 0.39 μM, read-out: Percentage inhibition Hs ProRS): 9.43%
- inhibition at 0.78 µM (HsProRS; at 0.78 μM, read-out: Percentage inhibition Hs ProRS): 24.7%
- inhibition at 1.56 µM (HsProRS; at 1.56 μM, read-out: Percentage inhibition Hs ProRS): 46.5%
- inhibition at 3.13 µM (HsProRS; at 3.13 μM, read-out: Percentage inhibition Hs ProRS): 64.1%
- inhibition at 6.25 µM (HsProRS; at 6.25 μM, read-out: Percentage inhibition Hs ProRS): 74.3%
- inhibition at 12.5 µM (HsProRS; at 12.50 μM, read-out: Percentage inhibition Hs ProRS): 85.7%
- inhibition at 25 µM (HsProRS; at 25.00 μM, read-out: Percentage inhibition Hs ProRS): 89.2%
